Experimental data from the supplement of paper PMC7017272.
± gives the standard deviation of the averaged measurements.

Legend:
Settings in all cases: treatment time: 3 days
[1] = system: UT-SCC-24A; assay: drug sensitivity score (DSS); higher = more sensitive
Procedure: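 HNSCC cell lines (500 cells/well, 384-well) were cultured on plastic, on top of (2D) or embedded (3D) in Matrigel or human leiomyoma matrix Myogel (500 ug/mL; Myogel 3D mixed with rat collagen I). Cells were treated for 3 days with 5 ten-fold concentrations of each drug, and viability was read by CellTiter-Glo. Suffixes _1/_2/_3 on drug names are replicates.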

[2] = system: UT-SCC-106A; assay: maximal % inhibition of viability relative to DMSO; higher = stronger effect
Method in brief: (§1)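 The FIMM pipeline was used to fit percent-inhibition dose–response curves, giving IC50, maximal inhibition and drug sensitivity score. Input data were CellTiter-Glo 2.0 luminescence readings, normalised to vehicle (0.1% DMSO) and cell-killing control wells, from HPV-negative HNSCC cell lines seeded at 500 cells/well in 384-well plates. Cells sat on plastic, on Matrigel or Myogel coatings (500 µg/mL), or within Matrigel or Myogel plus rat collagen I, and received compounds at five 10-fold concentrations for 3 days.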

[3] = system: UT-SCC-14; assay: as above
Method in brief: as §1

[4] = system: UT-SCC-24B; assay: as above
Method in brief: as §1

[5] = system: UT-SCC-28; assay: as above
Method in brief: as §1

[6] = system: UT-SCC-40; assay: as above
Method in brief: as §1

[7] = system: UT-SCC-42A; assay: as above
Method in brief: as §1

[8] = system: UT-SCC-42B; assay: as above
Method in brief: as §1

[9] = system: UT-SCC-44; assay: as above
Method in brief: as §1

[10] = system: UT-SCC-73; assay: as above
Method in brief: as §1

[11] = system: UT-SCC-81; assay: as above
Method in brief: as §1

[12] = system: UT-SCC-8; assay: as above
Method in brief: as §1

[13] = system: UT-SCC-106A; assay: relative IC50 (midpoint of the fitted curve; maximal inhibition may be below 50%); higher = less potent
Method in brief: as §1

[14] = system: UT-SCC-14; assay: as above
Method in brief: as §1

[15] = system: UT-SCC-24B; assay: as above
Method in brief: as §1

[16] = system: UT-SCC-40; assay: as above
Method in brief: as §1

[17] = system: UT-SCC-42B; assay: as above
Method in brief: as §1

[18] = system: UT-SCC-44; assay: as above
Method in brief: as §1

[19] = system: UT-SCC-73; assay: as above
Method in brief: as §1

[20] = system: UT-SCC-8; assay: as above
Method in brief: as §1

[21] = culture condition: embedded in Matrigel
[22] = culture condition: embedded in Myogel + collagen I
[23] = culture condition: on top of Matrigel
[24] = culture condition: on top of Myogel
[25] = culture condition: plastic 2D (no matrix)

relative IC50 [13, 21]: 11.7 nM | relative IC50 [13, 22]: 491 nM | relative IC50 [13, 23]: 11.5 nM | relative IC50 [13, 24]: 768 nM | relative IC50 [13, 25]: 19 nM | relative IC50 [14, 23]: 250 nM | relative IC50 [14, 24]: 416 nM | relative IC50 [14, 25]: 637 nM | relative IC50 [15, 21]: 150 nM | relative IC50 [15, 22]: 212 nM | relative IC50 [15, 23]: 184 nM | relative IC50 [15, 24]: 653 nM | relative IC50 [15, 25]: 102 nM | relative IC50 [16, 21]: 12.9 nM | relative IC50 [16, 22]: 45.4 nM | relative IC50 [16, 23]: 30.1 nM | relative IC50 [16, 24]: 89.4 nM | relative IC50 [16, 25]: 89 nM | relative IC50 [17, 21]: 12.4 nM | relative IC50 [17, 23]: 42.6 nM | relative IC50 [17, 24]: 221 nM | relative IC50 [17, 25]: 123 nM | relative IC50 [18, 23]: 35.2 nM | relative IC50 [18, 24]: 148 nM | relative IC50 [19, 21]: 20.4 nM | relative IC50 [19, 22]: 95.9 nM | relative IC50 [19, 23]: 21 nM | relative IC50 [19, 24]: 64.6 nM | relative IC50 [19, 25]: 37.6 nM | relative IC50 [20, 21]: 122 nM | relative IC50 [20, 22]: 773 nM | relative IC50 [20, 23]: 159 nM | relative IC50 [20, 24]: 163 nM | relative IC50 [20, 25]: 228 nM
SMILES: O=C(NC[C@H](O)CO)c1ccncc1Nc1ccc(I)cc1F [Pimasertib]
drug sensitivity score [1, 21]: 34.8 ± 1.2 DSS | drug sensitivity score [1, 22]: 18.5 ± 1.2 DSS | drug sensitivity score [1, 23]: 31.6 ± 0.84 DSS | drug sensitivity score [1, 24]: 15 ± 1.6 DSS | drug sensitivity score [1, 25]: 28.3 ± 1.6 DSS | maximal % inhibition of viability [2, 21]: 53.5 ± 4.2% | maximal % inhibition of viability [2, 22]: 43.4 ± 1.8% | maximal % inhibition of viability [2, 23]: 63.2 ± 0.68% | maximal % inhibition of viability [2, 24]: 54.1 ± 3.3% | maximal % inhibition of viability [2, 25]: 70 ± 1.2% | maximal % inhibition of viability [3, 21]: 64.8 ± 6.5% | maximal % inhibition of viability [3, 22]: 59.6 ± 4.5% | maximal % inhibition of viability [3, 23]: 59.6 ± 6.8% | maximal % inhibition of viability [3, 24]: 54.7 ± 9.3% | maximal % inhibition of viability [3, 25]: 57.1 ± 10% | maximal % inhibition of viability [4, 21]: 72.7 ± 1.5% | maximal % inhibition of viability [4, 22]: 79.1 ± 8.2% | maximal % inhibition of viability [4, 23]: 75.8 ± 2.7% | maximal % inhibition of viability [4, 24]: 67.9 ± 2.7% | maximal % inhibition of viability [4, 25]: 88.9 ± 1.2% | maximal % inhibition of viability [5, 21]: 54.1 ± 6.8% | maximal % inhibition of viability [5, 22]: 51 ± 6.3% | maximal % inhibition of viability [5, 23]: 54.8 ± 1.5% | maximal % inhibition of viability [5, 25]: 32.7 ± 3.9% | maximal % inhibition of viability [6, 21]: 80.6 ± 0.3% | maximal % inhibition of viability [6, 22]: 72.8 ± 3.5% | maximal % inhibition of viability [6, 23]: 77.77 ± 0.35% | maximal % inhibition of viability [6, 24]: 64.6 ± 2.5% | maximal % inhibition of viability [6, 25]: 64.5 ± 4.9% | maximal % inhibition of viability [7, 21]: 61.3 ± 7.5% | maximal % inhibition of viability [7, 22]: 51.3 ± 6.6% | maximal % inhibition of viability [7, 23]: 63.2 ± 0.95% | maximal % inhibition of viability [7, 24]: 55.7 ± 5.7% | maximal % inhibition of viability [7, 25]: 60.4 ± 7.4% | maximal % inhibition of viability [8, 21]: 70.2 ± 1.9% | maximal % inhibition of viability [8, 23]: 59.9 ± 2.8% | maximal % inhibition of viability [8, 24]: 53 ± 2.7% | maximal % inhibition of viability [8, 25]: 49.2 ± 3.8% | maximal % inhibition of viability [9, 21]: 93.77 ± 0.93% | maximal % inhibition of viability [9, 22]: 66.6 ± 8.2% | maximal % inhibition of viability [9, 23]: 81.8 ± 2.8% | maximal % inhibition of viability [9, 24]: 66.3 ± 3.5% | maximal % inhibition of viability [9, 25]: 69.6 ± 7.2% | maximal % inhibition of viability [10, 21]: 86.2 ± 1.2% | maximal % inhibition of viability [10, 22]: 78.7 ± 13% | maximal % inhibition of viability [10, 23]: 81.93 ± 0.55% | maximal % inhibition of viability [10, 24]: 76.4 ± 1.3% | maximal % inhibition of viability [10, 25]: 79.6 ± 1.4% | maximal % inhibition of viability [11, 21]: 88.7 ± 1.7% | maximal % inhibition of viability [11, 22]: 68.2 ± 0.36% | maximal % inhibition of viability [11, 23]: 86.1 ± 0.46% | maximal % inhibition of viability [11, 24]: 71.2 ± 2.8% | maximal % inhibition of viability [11, 25]: 78.6 ± 1.5% | maximal % inhibition of viability [12, 21]: 93.8 ± 1.2% | maximal % inhibition of viability [12, 22]: 82.5 ± 1.6% | maximal % inhibition of viability [12, 23]: 90.4 ± 0.76% | maximal % inhibition of viability [12, 24]: 85.8 ± 2.3% | maximal % inhibition of viability [12, 25]: 90.3 ± 2.2%
